Experiments:
COX2 [1] = biological target: T1, COX2 (Homo sapiens, UniProt P35354); experiment: Biolayer interferometry (BLI) binding to His-tagged COX2 on Ni-NTA sensors; settings: for Kd: BLI, one-to-one binding model, 4–6 point concentration series, read-out: KD (equilibrium dissociation constant); for COX2 binding in BLI: initial assay at 100 μM, binders re-assayed in concentration series
T1 construct: purchased Sino Biological Co. (Beijing, China)
T1 sequence (P35354 18-604): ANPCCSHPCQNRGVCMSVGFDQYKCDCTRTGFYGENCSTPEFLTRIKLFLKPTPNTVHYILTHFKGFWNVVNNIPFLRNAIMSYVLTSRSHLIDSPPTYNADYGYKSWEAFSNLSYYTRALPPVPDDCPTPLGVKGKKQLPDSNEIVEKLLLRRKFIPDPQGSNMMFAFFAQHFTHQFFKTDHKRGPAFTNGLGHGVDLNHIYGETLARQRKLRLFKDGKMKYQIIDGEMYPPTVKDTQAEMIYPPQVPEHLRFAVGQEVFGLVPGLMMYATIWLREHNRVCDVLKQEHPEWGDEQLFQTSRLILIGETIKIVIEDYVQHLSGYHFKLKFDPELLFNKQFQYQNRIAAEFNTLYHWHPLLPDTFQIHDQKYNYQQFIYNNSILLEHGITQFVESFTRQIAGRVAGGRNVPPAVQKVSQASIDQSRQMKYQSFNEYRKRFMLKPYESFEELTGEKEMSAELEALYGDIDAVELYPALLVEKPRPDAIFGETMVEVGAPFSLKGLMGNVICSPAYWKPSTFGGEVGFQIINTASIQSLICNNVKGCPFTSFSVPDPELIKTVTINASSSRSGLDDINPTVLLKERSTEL
Description: The label-free real-time binding assay, BLI, was firstly performed to evaluate the potential COX2 binding activities of the twelve novel compounds. COX2 protein was captured onto the Ni-NTA sensors, by the virtue of its His-tag, followed by exposure to small-molecule compound. The binding of small-molecule compound to the biosensor increased the layer thickness of the sensor, resulting in an interference wavelength shift recorded by BLI. All 12 compounds were initially assayed at a single concentration of 100 μM (Figure 2a).
A significant shift in the association curve was observed upon addition of different concentrations of compounds DB2, SC2 and YB2 to COX2 in a concentration dependent manner (Figure 2b–d). During the dissociation step, it was also observed that the signal decreased to the baseline. That was a sign of a total protein-ligand dissociation, thus indicating the interaction was reversible. The real-time binding curves were generated fitting to a one-to-one binding model. The ratio of koff (dissociation) and kon (association) constants was equilibrium dissociation constants (KD).
His-tagged COX2 solution (40 μg∙mL^−1), which was prepared in phosphate buffer saline (PBS), was immobilized on Ni-NTA biosensor tips for 600 s. To remove drift and well-to-well artifacts, we performed double reference subtraction with FortéBio data analysis software. All the twelve compounds stock solutions (10 mM) were prepared in dimethyl sulfoxide (DMSO). The stock solutions were diluted with PBS containing 0.1% […] (PBST) to 100 μM for the initial assay. Typically, for re-assay, the stock solutions were serially diluted (4–6 point serial dilutions) in PBST. Compound testing was performed sequentially taking baseline, association and dissociation steps. Each of these steps took 60 s. The alignment of data was carried out using baseline signal and curves fitted with a one to one best-fit model in FortéBio’s data analysis software.

COX2 [2] = biological target: T1, COX2; experiment: Three-dimensional fluorescence spectroscopy of COX2-compound systems; type: binding; settings: for Peak Position λex/λem, peak 2 / Relative Intensity (I), peak 2 / Relative Intensity (I), peak 1: compound 4.50 × 10^−5 mol∙L^−1, 298 K; for Relative Intensity (I), peak 2: COX2 alone 775; for Relative Intensity (I), peak 1: COX2 alone 874
Description: Three-dimensional fluorescence spectroscopy can reflect the microenvironment of related fluorophores. It was employed to study the structural changes of COX2 before and after binding. Peak 1 and peak 2 were maintained at 272/338 nm and 230/337 nm, respectively. […] Peak 2 reflected the fluorescence information of the polypeptide backbone structure of COX2, involving pi-to-pi* transition related to the secondary structure changes. According to Figure 7 and Table 3, both peak 1 and peak 2 of COX2 had been quenched. […] Furthermore, the fluorescence intensity of peak 1 was higher than that of peak 2 in the spectra for COX2-SC2 complex (Table 3). It implies that the fluorescence quenching of COX2 by compound SC2 on peak 2 was more evident than on peak 1. We could draw a conclusion that the interaction of compound SC2 with COX2 induced the slight opening of the polypeptides of protein, thereafter changing the conformation of COX2. […] Comparison of Figure 7a with Figure 7c also implied that there was a blue shift of 5.5 nm for peak 1, and 4 nm for peak 2. […] These changes induced the increase in hydrophobicity of COX2, decrease in collisions between COX2 molecules and water, and increase in the quantum yield of COX2. […] Taken together, these combined results implicate the ability of compounds DB2, SC2 and YB2 to bind to COX2.
The fluorescence intensity of the system was measured with a 1.0 cm quartz cell. […] DB2, SC2 or YB2 stock solutions were prepared in singleton at 1.5 × 10^−3 mol∙L^−1 in PBS containing 0.1% DMSO. 2.0 mL COX2 solution was separately titrated by continuing additions of 10 μL compounds DB2, SC2 or YB2 solution). After incubation at 298 K or 310 K, fluorescence quenching spectra were recorded in the region 325-450 nm at a scan rate of 1200 nm∙min^−1. The local environment of Tyr and Trp residues was quite sensitive at 280 nm, so the excitation wavelength was set at this wavelength. Typically, 280 nm is also used to measure the changes in protein tertiary structure. The slit widths of emission and excitation were both fixed at 10 nm. To observe spectra behaviors of Tyr and Trp groups of COX2, the wavelength interval between the excitation and emission wavelengths (Δλ) was set as 15 nm and 60 nm, respectively. Three-dimensional fluorescence spectroscopy was obtained for an excitation range of 200–300 nm and an emission range of 325–400 nm. Appropriate buffer solutions, determined under the same operation conditions, were used as blanks. Each spectrum was recorded three times.

How did the Kd (COX2 [1]) turn out when `CCCCc1ccc(C(=O)c2c(Br)cc(O)c(O)c2O)cc1` [DB2] was run?
Its Kd is 394 µM.

And the “COX2 binding in BLI” value (COX2 [1])?
The value was “interacted with the protein”.

And the “Peak Position λex/λem, peak 2” value (COX2 [2])?
Its value is 236/337.

And the “Relative Intensity (I), peak 2” value (COX2 [2])?
The value was 153.

And the “Relative Intensity (I), peak 1” value (COX2 [2])?
Its value is 665.

How did the Kd (COX2 [1]) turn out when `CC(C)(C)c1ccc(C(=O)c2c(Cl)cc(O)c(O)c2O)cc1` [SC2] was run?
Its Kd is 627 µM.

And the “COX2 binding in BLI” value (COX2 [1])?
Its value is “interacted with the protein”.

And the “blue shift of peak 1” value (COX2 [2]; COX2-compound vs COX2 alone)?
Its value is 5.5 nm.

What about the “blue shift of peak 2” value (COX2 [2]; COX2-compound vs COX2 alone) of the same molecule?
Its value is 4 nm.

What about the “Peak Position λex/λem, peak 2” value (COX2 [2]) of the same molecule?
The value was 236/333.

And the “Relative Intensity (I), peak 2” value (COX2 [2])?
The value was 82.9.

And the “Relative Intensity (I), peak 1” value (COX2 [2])?
The value was 395.

`CC(C)Cc1ccc(C(=O)c2c(Br)cc(O)c(O)c2O)cc1` [YB2] was tested. Which Kd (COX2 [1]) did it give?
The Kd was 766 µM.

What about the “COX2 binding in BLI” value (COX2 [1]) of the same molecule?
The value was “interacted with the protein”.

What about the “Peak Position λex/λem, peak 2” value (COX2 [2]) of the same molecule?
The value was 236/336.

And the “Relative Intensity (I), peak 2” value (COX2 [2])?
Its value is 103.

And the “Relative Intensity (I), peak 1” value (COX2 [2])?
The value was 472.

From article PMC8587043, “An Investigation into the Interaction between Double Hydroxide-Based Antioxidant Benzophenone Derivatives and Cyclooxygenase 2” (Molecules, 2021)
